Here are results for two compounds from patent publication US20050054620A1, “Paricalcitol as a chemotherapeutic agent” (priority 2003, published 2005).

In series [1] the test system is HL-60 cells. The series can be described thus: Western blot of cell lysates. Format: cell-based, human. The method, then:
(§1) Western blot analysis was used to determine the levels of proteins involved in cell cycle and differentiation. For western blot analysis, cells were washed twice in PBS, suspended in lysis buffer [50 mM Tris (pH 8.0), 150 mM NaCl, 0.1% SDS, 0.5% sodium deoxycholate, 1% NP40, […] phenylmethylsulfonyl fluoride, […] aprotinin, […] pepstatin, and […] leupetin] and placed on ice for 30 min. After centrifugation at 15,000×g for 15 min at 4° C., the suspension was collected. Protein concentrations were quantitated using the Bio-Rad assay (Bio-Rad Labolatories, Hercules, Calif.). Whole lysates ([…]) were resolved by 4-15% SDS polyacrylamide gel, transferred to an immobilon polyvinylidene difuride membrane (Amersham Corp., Arlington Heights, Ill.), and probed sequentially with a number of antibodies (p21WAF1, p27KIP1, PTEN, and GAPDH, Santa Cruz Biotechnology Inc., Santa Cruz, Calif.). The blots were developed using the Supersignal West Pico Chemiluminescent Substrate Kit (Pierce, Rockford, Ill.).
(§2) Western blot analysis was performed as follows: cells were washed twice in PBS, suspended in lysis buffer (50 mM Tris at pH 8.0, 150 mM NaCl, 0.1% SDS, 0.5% sodium deoxycholate, 1% Nonidet P-40, phenylmethylsulfonyl fluoride at 100 μg/mL, aprotinin at 2 μg/mL, pepstatin at 1 μg/mL, and leupetin at 10 μg/mL), and placed on ice for 30 minutes. After centrifugation at 15,000×g for 15 minutes at 4° C., the suspension was collected. Protein concentrations were quantitated by using the Bio-Rad protein Assay Dye Reagent Concentrate (Bio-Rad Laboratories, Hercules, Calif.) according to the manufacture's recommendation. Whole cell lysates (40 μg) were resolved by SDS-polyacrylamide gel electrophoresis in a 4%-15% gel, transferred to a polyvinylidene difuride membrane (Immobilon, Amersham Corp., Arlington Heights, Ill.), and probed sequentially with antibodies against the following proteins: VDR, RXR, CEBPβ, Rb, Bcl-2, Bcl-XL, Bax, p-ERK, RARA, GAPDH (Santa Cruz Biotechnology Inc., Santa Cruz, CA). The blots were developed using the Supersignal West Pico Chemiluminescent Substrate Kit (Pierce, Rockford, Ill.).
On the technique in general: Immunoblotting shows a protein as a band on a membrane.

For a further series, the system named is NB-4 cells. Put plainly: Western blot of cell lysates. The conditions noted are these: 10^−7 M, 72 hrs. Format: cell-based, human. The method, then: as §1, §2
Series [2] has as its system HL-60 cells. Put plainly: CD14 expression by flow cytometry. The format is cell-based, human. The method, then: In order to measure cell surface CD14 antigen on HL-60 cells, promyelocytic leukemia cell line, HL-60, was treated with either 1,25(OH)2D3 or paricalcitol (10^−7M) for 4 days and examined for CD14 expression by flow cytometry using CD14 antibody (DAKO, Carpinteria, Calif.), as described previously (Hisatake et al., supra, 2001). Murine IgG1 antibody (DAKO) was used as a control.
Measurement of cell surface CD14 antigen on HL-60 cells by flow cytometry using CD14 antibody (DAKO, Carpinteria, Calif.), was determined as described previously (Hisatake et al. Blood 97:2427-2433 (2001)). Murine IgG1 antibody (DAKO) was used as a control.
A general note: Flow cytometry measures light scatter and fluorescence of single cells or particles in a stream.

In series [3] the test system is NCI-H929 cells. The series can be described thus: Cell cycle analysis by flow cytometry. The conditions noted are these: 10^−7M, 72 hrs. Format: cell-based, human. Here is the method:
For cell cycle analysis, cells were exposed to 10^−7M 1,25(OH)2D3, 10^−7M paricalcitol or vehicle control for either 3 or 4 days. Total cells, both in suspension and adherent, were collected, washed, suspended in cold PBS. Then cells were fixed in 75% chilled methanol and stained with propidium iodine. Cell cycle status was analyzed on a Becton Dickinson Flow Cytometer.
HCI-H929 cells were cultured with either paricalcitol (10^−7M) or 1,25(OH)2D3 (10^−7M) for 72 hrs, harvested and stained with propidium iodine (PI). Control cells were treated with vehicle alone.

The subject of series [4] is NCI-H929 cells. The series can be described thus: TUNEL assay of apoptosis. The conditions noted are these: 10^−7M, 96 hrs, diluant control 4%. The format is cell-based, human. The method, then:
In FIG. […] Results represent the mean±SD of three independent experiments. A TUNEL assay was performed for immunohistochemical detection and quantification of programmed cell death at the single cell level, based on labeling of DNA strand breaks using the In Situ Cell Death Detection, POD (Roche, Indianapolis, Ind.). Early apoptosis was also detected by measuring annexin V protein in the cell membrane using Annexin V-FITC Kit (CLONTECH, Palo Alto, Calif.) followed by flow cytometric analysis.

The test system of series [5] is NCI-H929 cells. The series can be described thus: Western blot of cell lysates. Format: cell-based, human. The conditions noted are these: 10^−7M. The method, then:
Western blot analysis was used to determine the levels of proteins involved in cell cycle and differentiation. […] After centrifugation at 15,000×g for 15 min at 4° C., the suspension was collected. Protein concentrations were quantitated using the Bio-Rad assay (Bio-Rad Labolatories, Hercules, Calif.). […] The blots were developed using the Supersignal West Pico Chemiluminescent Substrate Kit (Pierce, Rockford, Ill.). In FIG. 3C, NCI-H929 cells were treated with either paricalcitol (10^−7M) or 1,25(OH)2D3 (10^−7M) and cell lysates were prepared after 72 hrs. Cell lysates were used for Western blot analysis and probed sequentially with antibodies to p27KIP1, Bcl-2 and Bax. Control cells were treated with vehicle alone. Amount of protein was normalized by comparison to the amount of GAPDH. […] The Bcl-2 and Bax antibodies were obtained from Santa Cruz Biotechnology Inc., Santa Cruz, Calif.

The subject of the next series is HT-29 cells. The series can be described thus: Western blot of cell lysates. The format is cell-based, human. The conditions noted are these: 10^−7M, 72 hrs. The method, then: Western blot analysis was used to determine the levels of proteins involved in cell cycle and differentiation. […] After centrifugation at 15,000×g for 15 min at 4° C., the suspension was collected. Protein concentrations were quantitated using the Bio-Rad assay (Bio-Rad Labolatories, Hercules, Calif.). […] The blots were developed using the Supersignal West Pico Chemiluminescent Substrate Kit (Pierce, Rockford, Ill.). In FIG. 4B, HT-29 cells were exposed to either paricalcitol (10^−7M) or 1,25(OH)2D3(10^−7M). Cell lysates were prepared after 72 hrs of culture and analyzed by Western blot. The Western blot was probed sequentially with antibodies for p27KIP1, p21WAF1, cyclin D1, c-myc and E-Cadherin (antibodies from Santa Cruz Biotechnology) as described in Example II. Control cells were treated with vehicle alone. The quantity of protein was normalized by comparison to the amount of GAPDH. In FIG. 4C, HT-29 and SW837 cells were cultured with either paricalcitol (10^−7M) or 1,25(OH)2D3 (10^−7M) for 72 hrs. Cell lysates were prepared and analyzed by Western blot which was probed sequentially with antibodies to COX-1 and COX-2 (Santa Cruz Biotechnology). Control cells were treated with vehicle alone. The amount of protein was normalized by comparison to the quantity of GAPDH.

A further series has as its system SW837 cells. Put plainly: Western blot of cell lysates. Format: cell-based, human. The conditions noted are these: 10^−7M, 72 hrs. The method, then: Western blot analysis was used to determine the levels of proteins involved in cell cycle and differentiation. […] After centrifugation at 15,000×g for 15 min at 4° C., the suspension was collected. Protein concentrations were quantitated using the Bio-Rad assay (Bio-Rad Labolatories, Hercules, Calif.). […] The blots were developed using the Supersignal West Pico Chemiluminescent Substrate Kit (Pierce, Rockford, Ill.). In FIG. 4C, HT-29 and SW837 cells were cultured with either paricalcitol (10^−7M) or 1,25(OH)2D3 (10^−7M) for 72 hrs. Cell lysates were prepared and analyzed by Western blot which was probed sequentially with antibodies to COX-1 and COX-2 (Santa Cruz Biotechnology). Control cells were treated with vehicle alone. The amount of protein was normalized by comparison to the quantity of GAPDH.

The conditions of series [6]: humans, cited from earlier work.

For `C=C1/C(=C\C=C2/CCC[C@]3(C)[C@@H]([C@H](C)CCCC(C)(C)O)CC[C@@H]23)C[C@@H](O)C[C@@H]1O` [1,25(OH)2D3], in the series on HL-60 cells [1] (10^−7M, 72 hr), the “induction of p21WAF1” value was “approximately 7 fold” and the “induction of p27KIP1” value was “about 6 fold”. Moreover, the “PTEN expression (in words)” value with HL-60 cells [1] (10^−7 M, 72 hrs) is “induced PTEN expression”. For the same compound, the “PTEN expression (in words)” value in the series on NB-4 cells was “induced PTEN expression”. The “cells induced to express CD14” value in the series on HL-60 cells [2] (10^−7M, 96 hrs) amounted to 54%. Moreover, the “increase of accumulation in G1/G0 phase” value in the series on NCI-H929 cells [3] was 7%. In addition, in the series on NCI-H929 cells [3] (diluant control 4% sub-G1), the “increase in apoptotic sub-G1 population” value is listed as 16%. Besides, the “apoptotic cells (TUNEL)” value with NCI-H929 cells [4] was 20%. In addition, in the series on NCI-H929 cells [5] (72 hrs), the “decrease of Bcl-2 protein level” value was “about 40%” and the “effect on levels of Bax” value was “did not affect”. Besides, in the series on NCI-H929 cells [5] (96 hrs), the “effect on levels of p21WAF1” value was “little effect” and the “increase of p27KIP1 expression” value was “about 3 fold”. For the same compound, in the series on HT-29 cells, the “decrease of COX-2 expression” value is 50%, the “decrease of c-myc expression” value was about 40%, the “decrease of cyclin D1 expression” value is listed as “about 50%” and the “effect on COX-1 expression” value is recorded as “suppressed COX-2 but not COX-1 expression”. Also, the “increase of E-cadherin” value in the series with HT-29 cells was “about 6 fold”. For the same compound, in the series with SW837 cells, the “decrease of COX-2 expression” value amounted to 50% and the “effect on COX-1 expression” value is “suppressed COX-2 but not COX-1 expression”. Besides, the serum half-life entry in series [6] (paricalcitol compared with 1,25(OH)2D3) is on record as “similar”. Moreover, the peak serum levels in series [6] (typical dose 0.5 to 1.0 mg/every other day) is 40 to 60 pg/mL.
Consider `COc1cccc(-c2cc(=O)c3ccccc3o2)c1N` [PD98059], for which, in the series on HL-60 cells [2] (PD98059 25 μM, 2 days), the “monocytic differentiation (CD14) induced by paricalcitol and by the combination with arsenic trioxide” value is “blocked”.
